pIC50: −log10 of the molar value. Read-outs that look alike come from different tables or passages of the source.
What was measured:
Assay type in all cases: biochemical
Caspase 3 = molecular target: T1, Caspase 3 (Homo sapiens, UniProt P42574); experiment: Caspase 3 activity assay
T1 sequence (P42574 29-175 limits assumed): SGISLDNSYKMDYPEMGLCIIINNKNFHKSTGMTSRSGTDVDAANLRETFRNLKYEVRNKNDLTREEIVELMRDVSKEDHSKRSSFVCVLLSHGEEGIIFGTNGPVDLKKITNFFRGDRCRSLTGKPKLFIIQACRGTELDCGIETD
T1 sequence (P42574 176-277 limits assumed): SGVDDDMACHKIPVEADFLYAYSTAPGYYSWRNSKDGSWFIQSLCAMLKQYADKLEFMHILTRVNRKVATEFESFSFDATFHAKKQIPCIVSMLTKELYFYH
Protocol: Compounds stocks (100 mM) were stored at −20° C. in DMSO. […] Reactions were performed as duplicates in Black LJL 96 well plates (HE microplates; Molecular Devices; 20 μl final reaction volume). The substrate concentration for caspase 3 specificity assay was 500 nM (Ac-DEVD-AMC; Promega). […] The concentrations were determined in order to perform specificity assays under initial velocities at fixed substrate concentration. Compounds were pre-incubated with enzymes for 30 minutes at 25° C. Reactions were initiated by addition of substrate to the plates containing the enzymes (+/−compounds) diluted in assay buffer. Reactions were incubated for 60 minutes at 37° C. Reactions were stopped by adding acetic acid (100 mM final). Readings were performed on a Pherastar Fluorescent Reader (BMG). δ Emission 380 nm; δ Excitation=460 nm. Data (mean values+/− standard deviation) were analyzed as % of control (no compound) and plotted as percentage versus the Log of the compound concentration using GraphPad (Prism). Data were fitted to a sigmoidal model (variable slope).

Uch-L3 = molecular target: T2, Uch-L3 (Homo sapiens, UniProt P15374); experiment: UCH-L3 activity assay; conditions: 400 nM Ub-AMC, 13 pM enzyme, 30 min pre-incubation at 25° C., 60 min at 37° C.; sigmoidal fit; AF: Autofluorescent; read-out: Uch-L3 (inhibition of cysteine protease activity)
T2 sequence (P15374 1-230): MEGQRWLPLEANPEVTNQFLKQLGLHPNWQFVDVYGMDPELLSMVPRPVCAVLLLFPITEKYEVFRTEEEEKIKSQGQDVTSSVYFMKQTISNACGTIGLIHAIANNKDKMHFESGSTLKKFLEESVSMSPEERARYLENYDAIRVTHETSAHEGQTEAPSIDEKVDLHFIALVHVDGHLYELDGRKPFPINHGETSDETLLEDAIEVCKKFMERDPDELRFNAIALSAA
Protocol: Bovine Serum Albumin 0.05 mg·ml^−1 pH7.6). Compounds stocks (100 mM) were stored at −20° C. in DMSO. […] Reactions were performed as duplicates in Black LJL 96 well plates (HE microplates; Molecular Devices; 20 μl final reaction volume). The substrate concentration for Uch-L3 was 400 nM Ub-AMC (Boston Biochem). The concentration of the enzyme (Uch-L3) in specificity assays was 13 pM. The concentrations were determined in order to perform specificity assays under initial velocities at fixed substrate concentration. Compounds were pre-incubated with enzymes for 30 minutes at 25° C. Reactions were initiated by addition of substrate to the plates containing the enzymes (+/−compounds) diluted in assay buffer. Reactions were incubated for 60 minutes at 37° C. Reactions were stopped by adding acetic acid (100 mM final). Readings were performed on a Pherastar Fluorescent Reader (BMG). δ Emission 380 nm; δ Excitation=460 nm. Data (mean values+/− standard deviation) were analyzed as % of control (no compound) and plotted as percentage versus the Log of the compound concentration using GraphPad (Prism). Data were fitted to a sigmoidal model (variable slope).

USP7 = molecular target: T3, USP7 (Homo sapiens, UniProt Q93009); experiment: USP7 activity assay
T3 construct: His tag (from pFastBac-HT vector) (N); made in house; host or cells: insect cells (Sf9 or High Five), baculovirus
T3 sequence (Q93009 whole entry): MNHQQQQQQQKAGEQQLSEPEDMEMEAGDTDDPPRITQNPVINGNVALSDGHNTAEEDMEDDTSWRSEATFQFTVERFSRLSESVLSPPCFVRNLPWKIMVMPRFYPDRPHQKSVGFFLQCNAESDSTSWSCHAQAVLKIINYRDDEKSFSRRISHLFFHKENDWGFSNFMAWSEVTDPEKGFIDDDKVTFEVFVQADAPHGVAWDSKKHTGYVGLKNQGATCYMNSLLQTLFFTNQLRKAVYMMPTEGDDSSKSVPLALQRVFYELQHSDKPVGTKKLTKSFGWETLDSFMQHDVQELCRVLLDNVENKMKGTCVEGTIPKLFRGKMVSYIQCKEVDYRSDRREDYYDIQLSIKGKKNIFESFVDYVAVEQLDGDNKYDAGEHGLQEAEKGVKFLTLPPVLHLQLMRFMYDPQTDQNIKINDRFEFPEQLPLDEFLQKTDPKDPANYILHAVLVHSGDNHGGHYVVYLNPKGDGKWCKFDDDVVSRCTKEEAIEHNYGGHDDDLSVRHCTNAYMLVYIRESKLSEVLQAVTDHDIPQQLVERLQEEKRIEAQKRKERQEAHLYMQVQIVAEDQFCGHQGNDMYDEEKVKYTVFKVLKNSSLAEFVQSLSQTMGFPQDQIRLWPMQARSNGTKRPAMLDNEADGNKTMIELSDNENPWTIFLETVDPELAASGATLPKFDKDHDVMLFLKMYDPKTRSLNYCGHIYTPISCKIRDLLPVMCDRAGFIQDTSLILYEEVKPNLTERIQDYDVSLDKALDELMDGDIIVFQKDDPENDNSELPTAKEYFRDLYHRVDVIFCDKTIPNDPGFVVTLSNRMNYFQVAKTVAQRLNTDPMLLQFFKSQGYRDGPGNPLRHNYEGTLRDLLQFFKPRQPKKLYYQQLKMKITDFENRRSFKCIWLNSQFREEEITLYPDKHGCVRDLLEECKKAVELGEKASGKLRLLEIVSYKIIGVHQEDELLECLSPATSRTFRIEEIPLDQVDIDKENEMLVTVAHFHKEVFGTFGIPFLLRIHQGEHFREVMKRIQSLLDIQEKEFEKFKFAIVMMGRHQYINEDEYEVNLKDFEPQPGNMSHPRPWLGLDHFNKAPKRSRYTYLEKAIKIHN

Cathepsin B = Cathepsin B (Homo sapiens, UniProt P07858); experiment: Cathepsin B activity assay; conditions: 36 μM z-RR-AMC, 3.6 nM enzyme, 30 min pre-incubation at 25° C., 60 min at 37° C.; sigmoidal fit; AF: Autofluorescent; read-out: cathepB (inhibition of cysteine protease activity)
Protocol: Cathepsin B was diluted in Cathepsin B buffer (20 mM Tris HCl pH 6.8; 1 mM EDTA; 1 mM DTT). Compounds stocks (100 mM) were stored at −20° C. in DMSO. […] Reactions were performed as duplicates in Black LJL 96 well plates (HE microplates; Molecular Devices; 20 μl final reaction volume). The substrate concentration for cathepsin B specificity assay was 36 μM (z-RR-AMC; Calbiochem). The concentration of the enzyme (Cathepsin B) in specificity assays was 3.6 nM. The concentrations were determined in order to perform specificity assays under initial velocities at fixed substrate concentration. Compounds were pre-incubated with enzymes for 30 minutes at 25° C. Reactions were initiated by addition of substrate to the plates containing the enzymes (+/− compounds) diluted in assay buffer. Reactions were incubated for 60 minutes at 37° C. Reactions were stopped by adding acetic acid (100 mM final). Readings were performed on a Pherastar Fluorescent Reader (BMG). δ Emission 380 nm; 6 Excitation=460 nm. Data (mean values+/− standard deviation) were analyzed as % of control (no compound) and plotted as percentage versus the Log of the compound concentration using GraphPad (Prism). Data were fitted to a sigmoidal model (variable slope).

[1] = 500 nM Ac-DEVD-AMC, 3.2 nM enzyme, 30 min pre-incubation at 25° C., 60 min at 37° C., sigmoidal fit, AF: Autofluorescent, read-out: Casp3 (inhibition of cysteine protease activity)
[2] = 400 nM Ub-AMC, 152 pM enzyme, 30 min pre-incubation at 25° C., 60 min at 37° C., sigmoidal fit, read-out: USP 7 (inhibition of cysteine protease activity)

| SMILES | pIC50 (Caspase 3; [1]) | pIC50 (Uch-L3) | pIC50 (USP7) | pIC50 (Cathepsin B) | pIC50 (USP7; [2]) | pIC50 (Caspase 3) |
| --- | --- | --- | --- | --- | --- | --- |
| CON=C1c2ccccc2-c2nc(C#N)c(C#N)nc21 [Example 13a, 9-(methoxyimino)-9H-indeno[1,2-b]pyrazine-2,3-dicarbonitrile] | 4.28 | 5.66 | < 4.00 | < 4.00 | – | – |
| N#Cc1nc2c(nc1C(N)=O)-c1ccccc1C2=O [Example 36, 2-cyano-9-oxo-9H-indeno[1,2-b]pyrazine-3-carboxylic acid amide] | 6.40 | 6.75 | 5.90 | – | – | – |
| N#Cc1nc2c(nc1C#N)-c1ccccc1C2=Nc1ccccc1 (mixture of isomers) [Example 14, 9-[phenylimino]-9H-indeno[1,2-b]pyrazine-2,3-dicarbonitrile] | 5.89 | 6.41 | – | 4.13 | 5.39 | – |
| CCO/C(O)=C(\C#N)c1nc2c(nc1C#N)C(=O)c1ccccc1-2 [Example 22, 3-(1-cyano-2-ethoxy-2-hydroxy-vinyl)-9-oxo-9H-indeno[1,2-b]pyrazine-2-carbonitrile] | < 4.00 | 4.66 | – | < 4.00 | – | – |
| N#Cc1nc2c(nc1C#N)-c1ccccc1C2=NOCCOc1ccccc1 [Example 27a, 9-(2-Phenoxy-ethoxyimino)-9H-indeno[1,2-b]pyrazine-2,3-dicarbonitrile] | < 4.00 | 4.98 | < 4.00 | < 4.00 | – | – |
| N#Cc1nc2c(nc1C#N)-c1ccccc1C2=O [Example 1, 9-oxo-9H-indeno[1,2-b]pyrazine-2,3-dicarbonitrile] | 6.16 | 6.12 | – | 4.92 | 5.46 | – |
| N#Cc1nc2c(nc1C#N)-c1ccccc1/C2=N/Oc1ccccc1 [Example 13e, 9-Phenoxyimino-9H-indeno[1,2-b]pyrazine-2,3-dicarbonitrile] | < 4.00 | 6.27 | – | < 4.00 | < 4.00 | – |
| CCOC(=O)CO/N=C1\c2ccccc2-c2nc(C(N)=O)c(C#N)nc21 [Example 37, (3-carbamoyl-2-cyano-indeno[1,2-b]pyrazin-9-ylideneaminooxy)-acetic acid ethyl ester] | 5.94 | 6.41 | – | – | 5.63 | – |
| N#Cc1nc2c(nc1C#N)-c1ccc(Cl)cc1C2=O [Example 17g, 7-Chloro-9-oxo-9H-indeno[1,2-b]pyrazine-2,3-dicarbonitrile] | 6.54 | 7.15 | – | 5.82 | 6.28 | – |
| C=CCON=C1c2ccc(Cl)cc2-c2nc(C#N)c(C#N)nc21 [Example 27c, 9-Allyloxyimino-6-chloro-9H-indeno[1,2-b]pyrazine-2,3-dicarbonitrile] | 5.55 | 6.30 | 5.46 | – | – | – |
| Cc1ccc2c(c1)-c1nc(C#N)c(C#N)nc1C2=O [Example 17e, 6-Methyl-9-oxo-9H-indeno[1,2-b]pyrazine-2,3-dicarbonitrile] | 5.48 | 5.68 | – | 4.70 | 5.14 | – |
| N#Cc1nc2c(nc1C#N)-c1ccc(O)cc1C2=O [Example 17j, 7-Hydroxy-9-oxo-9H-indeno[1,2-b]pyrazine-2,3-dicarbonitrile] | 4.33 | 5.10 | – | 4.40 | 4.18 | – |
| Cc1c(F)ccc2c1C(=O)c1nc(C#N)c(C#N)nc1-2 [Example 30, 7-Fluoro-8-methyl-9-oxo-9H-indeno[1,2-b]pyrazine-2,3-dicarbonitrile] | 5.97 | 6.47 | – | – | 5.65 | – |
| CCSc1nc2c(nc1C#N)C(=O)c1ccccc1-2 [Example 23, 3-ethylsulfanyl-9-oxo-9H-indeno[1,2-b]pyrazine-2-carbonitrile] | < 4.00 | 4.07 | – | < 4.00 | < 4.00 | – |
| N#Cc1nc2sc3ccccc3c2nc1C#N [Example 19, benzo[4,5]thieno[2,3-b]pyrazine-2,3-dicarbonitrile] | < 4.00 | < 4.00 | – | < 4.00 | < 4.00 | – |
| N#Cc1nc2c(nc1C(N)=O)-c1ccccc1/C2=N\OCC(=O)O [Example 38, (3-carbamoyl-2-cyano-indeno[1,2-b]pyrazin-9-ylideneaminooxy)-acetic acid] | – | 6.12 | 5.40 | – | – | 5.40 |
| C=CCON=C1c2ccccc2-c2nc(C#N)c(C#N)nc21 (mixture of isomers) [Example 13b, 9-(Allyloxyimino)-9H-indeno[1,2-b]pyrazine-2,3-dicarbonitrile] | < 4.00 | 5.00 | < 4.00 | < 4.00 | – | – |
| COc1ccc2c(c1)-c1nc(C#N)c(C#N)nc1C2=O [Example 17a, 6-Methoxy-9-oxo-9H-indeno[1,2-b]pyrazine-2,3-dicarbonitrile] | 5.00 | 5.15 | – | – | < 4.00 | – |
| N#Cc1nc2c(nc1C#N)C1(OCCO1)c1ccccc1-2 [Example 10] | < 4.00 | 4.70 | – | < 4.00 | – | – |
| N#Cc1nc2c(nc1CC(N)=O)-c1ccccc1C2=O [Example 26, 2-(2-cyano-9-oxo-9H-indeno[1,2-b]pyrazin-3-yl)-acetamide] | – | 5.80 | < 4.00 | < 4.00 | – | – |
| N#Cc1nc2c(nc1C#N)-c1cc(Cl)c(Cl)cc1C2=O [Example 31, 6,7-dichloro-9-oxo-9H-indeno[1,2-b]pyrazine-2,3-dicarbonitrile] | 6.80 | 6.98 | 6.23 | – | – | – |
| N#Cc1nc2c(nc1C(N)=O)-c1ccccc1/C2=N\OCC(=O)NCC(=O)O [Example 41, [2-(3-carbamoyl-2-cyano-indeno[1,2-b]pyrazin-9-ylideneaminooxy)-acetylamino]-acetic acid] | 5.70 | 6.48 | 5.37 | – | – | – |
| N#Cc1nc2c(nc1C(N)=O)-c1ccccc1/C2=N\O [Example 11, 2-cyano-9-[hydroxyimino]-9H-indeno[1,2-b]pyrazine-3-carboxylic acid amide] | 5.64 | 6.22 | – | – | 4.89 | – |
| CCOC(=O)CNC(=O)CO/N=C1\c2ccccc2-c2nc(C(N)=O)c(C#N)nc21 [Example 40, [2-(3-carbamoyl-2-cyano-indeno[1,2-b]pyrazin-9-ylideneaminooxy)-acetylamino]-acetic acid ethyl ester] | 6.07 | 6.61 | – | – | 5.55 | – |

Reference: US8648076B2, “Cysteine protease inhibitors and their therapeutic applications” (Hybrigenics SA, priority 2005, dated 2014)
